# Source: patent US20170253917A1, “METHODS AND SYSTEMS FOR DETERMINING ANTIBIOTIC SUSCEPTIBILITY” (priority 2016, published 2017)
# Test system: 1496 clinical isolates of E. coli
# Assay: Phenotypic antibiotic susceptibility testing, MicroScan WalkAway plus System, Neg MIC 45 panel
# Assay type: cell-based
# Details: 1496 E. coli isolates
# Method: Phenotypic antibiotic susceptibility testing was performed and an antibiotic response of resistant, intermediate or susceptible was assigned to each E. coli isolate per antibiotic based on minimal inhibitory concentrations as described in the MicroScan product insert. Phenotypic antibiotic susceptibility testing was performed on the 1496 E. coli isolates using the MicroScan WalkAway plus System and the Neg MIC 45 panel (P/N B1017-424) which covers 25 antibiotics. Cryopreserved isolates were sub-cultured twice on blood agar plates prior to antibiotic susceptibility testing. The MicroScan instrument was used to assign an antibiotic response of resistant, intermediate or susceptible for each isolate per antibiotic based on minimal inhibitory concentrations as described in the MicroScan product insert. Assignments of resistant or intermediate were combined and reported as resistant in this example. Assignments of susceptible are reported as such in this example.
row,Molecule,Phenotype of the E. coli isolates in words
1,NCC[C@H](O)C(=O)N[C@@H]1C[C@H](N)[C@@H](O[C@H]2O[C@H](CN)[C@@H](O)[C@H](O)[C@H]2O)[C@H](O)[C@H]1O[C@H]1O[C@H](CO)[C@@H](O)[C@H](N)[C@H]1O [Amikacin],the vast majority of isolates exhibited phenotypic susceptibility
2,C[C@@H](O)[C@H]1C(=O)N2C(C(=O)O)=C(S[C@@H]3CN[C@H](C(=O)Nc4cccc(C(=O)O)c4)C3)[C@H](C)[C@H]12 [Ertapenem],the vast majority of isolates exhibited phenotypic susceptibility
3,C[C@@H](O)[C@H]1C(=O)N2C(C(=O)O)=C(S[C@@H]3CN[C@H](C(=O)N(C)C)C3)[C@H](C)[C@H]12 [Meropenem],the vast majority of isolates exhibited phenotypic susceptibility
4,Cc1nnc(SCC2=C(C(=O)O)N3C(=O)[C@@H](NC(=O)Cn4cnnn4)[C@H]3SC2)s1 [Cefazolin],the vast majority of isolates exhibited phenotypic resistance
5,CN(C)c1cc(NC(=O)CNC(C)(C)C)c(O)c2c1C[C@H]1C[C@H]3[C@H](N(C)C)C(O)=C(C(N)=O)C(=O)[C@@]3(O)C(O)=C1C2=O [Tigecycline],the vast majority of isolates exhibited phenotypic susceptibility
6,CC1(C)S[C@@H]2[C@H](NC(=O)[C@H](N)c3ccccc3)C(=O)N2[C@H]1C(=O)O [Ampicillin],the vast majority of isolates exhibited phenotypic resistance
7,CCN1CCN(C(=O)N[C@@H](C(=O)N[C@@H]2C(=O)N3[C@@H]2SC(C)(C)[C@@H]3C(=O)O)c2ccccc2)C(=O)C1=O [Piperacillin],the vast majority of isolates exhibited phenotypic resistance

# Same assay, conditions: share of the 1496 E. coli isolates
row,Molecule,Measured Phenotype Susceptible (%)
1,Trimethoprim/Sulfamethoxazole,36%
2,CO[C@@]1(NC(=O)Cc2cccs2)C(=O)N2C(C(=O)O)=C(COC(N)=O)CS[C@@H]21 [Cefoxitin],79%
3,NCC[C@H](O)C(=O)N[C@@H]1C[C@H](N)[C@@H](O[C@H]2O[C@H](CN)[C@@H](O)[C@H](O)[C@H]2O)[C@H](O)[C@H]1O[C@H]1O[C@H](CO)[C@@H](O)[C@H](N)[C@H]1O [Amikacin],94%
4,C[C@@H](O)[C@H]1C(=O)N2C(C(=O)O)=C(S[C@@H]3CN[C@H](C(=O)Nc4cccc(C(=O)O)c4)C3)[C@H](C)[C@H]12 [Ertapenem],98%
5,NC[C@H]1O[C@H](O[C@H]2[C@H](O)[C@@H](O[C@H]3O[C@H](CO)[C@@H](O)[C@H](N)[C@H]3O)[C@H](N)C[C@@H]2N)[C@H](N)C[C@@H]1O [Tobramycin],45%
6,C[C@@H](O)[C@H]1C(=O)N2C(C(=O)O)=C(S[C@@H]3CN[C@H](C(=O)N(C)C)C3)[C@H](C)[C@H]12 [Meropenem],98%
7,Piperacillin/Tazobactam,84%
8,CO/N=C(\C(=O)N[C@@H]1C(=O)N2C(C(=O)O)=C(CSc3nc(=O)c(=O)[nH]n3C)CS[C@H]12)c1csc(N)n1 [Ceftriaxone],8%
9,CO/N=C(\C(=O)N[C@@H]1C(=O)N2C(C(=O)O)=C(COC(C)=O)CS[C@H]12)c1csc(N)n1 [Cefotaxime],9%
10,C[C@@H](O)[C@H]1C(=O)N2C(C(=O)O)=C(SCCN=CN)C[C@H]12 [Imipenem],97%
11,Amoxicillin/K Clavulanate,43%
12,Gentamicin,61%
13,Cc1nnc(SCC2=C(C(=O)O)N3C(=O)[C@@H](NC(=O)Cn4cnnn4)[C@H]3SC2)s1 [Cefazolin],5%
14,C[C@H]1[C@H](NC(=O)/C(=N\OC(C)(C)C(=O)O)c2csc(N)n2)C(=O)N1S(=O)(=O)O [Aztreonam],9%
15,C[C@H]1COc2c(N3CCN(C)CC3)c(F)cc3c(=O)c(C(=O)O)cn1c23 [Levofloxacin],19%
16,Ampicillin/Sulbactam,16%
17,CN(C)[C@@H]1C(O)=C(C(N)=O)C(=O)[C@@]2(O)C(O)=C3C(=O)c4c(O)cccc4[C@@](C)(O)[C@H]3C[C@@H]12 [Tetracycline],32%
18,Ticarcillin/K Clavulanate,56%
19,CO/N=C(\C(=O)N[C@@H]1C(=O)N2C(C(=O)O)=C(COC(N)=O)CS[C@H]12)c1ccco1 [Cefuroxime],7%
20,CO/N=C(\C(=O)N[C@@H]1C(=O)N2C(C(=O)[O-])=C(C[N+]3(C)CCCC3)CS[C@H]12)c1csc(N)n1 [Cefepime],10%
21,CC(C)(O/N=C(\C(=O)N[C@@H]1C(=O)N2C(C(=O)[O-])=C(C[n+]3ccccc3)CS[C@H]12)c1csc(N)n1)C(=O)O [Ceftazidime],9%
22,CN(C)c1cc(NC(=O)CNC(C)(C)C)c(O)c2c1C[C@H]1C[C@H]3[C@H](N(C)C)C(O)=C(C(N)=O)C(=O)[C@@]3(O)C(O)=C1C2=O [Tigecycline],99.6%
23,CC1(C)S[C@@H]2[C@H](NC(=O)[C@H](N)c3ccccc3)C(=O)N2[C@H]1C(=O)O [Ampicillin],3%
24,CCN1CCN(C(=O)N[C@@H](C(=O)N[C@@H]2C(=O)N3[C@@H]2SC(C)(C)[C@@H]3C(=O)O)c2ccccc2)C(=O)C1=O [Piperacillin],4%

# Same assay, conditions: share of the 1496 E. coli isolates; resistant or intermediate combined as resistant
row,Molecule,Measured Phenotype Resistant (%)
1,Trimethoprim/Sulfamethoxazole,64%
2,CO[C@@]1(NC(=O)Cc2cccs2)C(=O)N2C(C(=O)O)=C(COC(N)=O)CS[C@@H]21 [Cefoxitin],21%
3,NCC[C@H](O)C(=O)N[C@@H]1C[C@H](N)[C@@H](O[C@H]2O[C@H](CN)[C@@H](O)[C@H](O)[C@H]2O)[C@H](O)[C@H]1O[C@H]1O[C@H](CO)[C@@H](O)[C@H](N)[C@H]1O [Amikacin],6%
4,C[C@@H](O)[C@H]1C(=O)N2C(C(=O)O)=C(S[C@@H]3CN[C@H](C(=O)Nc4cccc(C(=O)O)c4)C3)[C@H](C)[C@H]12 [Ertapenem],4%
5,NC[C@H]1O[C@H](O[C@H]2[C@H](O)[C@@H](O[C@H]3O[C@H](CO)[C@@H](O)[C@H](N)[C@H]3O)[C@H](N)C[C@@H]2N)[C@H](N)C[C@@H]1O [Tobramycin],55%
6,C[C@@H](O)[C@H]1C(=O)N2C(C(=O)O)=C(S[C@@H]3CN[C@H](C(=O)N(C)C)C3)[C@H](C)[C@H]12 [Meropenem],2%
7,Piperacillin/Tazobactam,16%
8,CO/N=C(\C(=O)N[C@@H]1C(=O)N2C(C(=O)O)=C(CSc3nc(=O)c(=O)[nH]n3C)CS[C@H]12)c1csc(N)n1 [Ceftriaxone],92%
9,CO/N=C(\C(=O)N[C@@H]1C(=O)N2C(C(=O)O)=C(COC(C)=O)CS[C@H]12)c1csc(N)n1 [Cefotaxime],91%
10,C[C@@H](O)[C@H]1C(=O)N2C(C(=O)O)=C(SCCN=CN)C[C@H]12 [Imipenem],3%
11,Amoxicillin/K Clavulanate,57%
12,Gentamicin,39%
13,Cc1nnc(SCC2=C(C(=O)O)N3C(=O)[C@@H](NC(=O)Cn4cnnn4)[C@H]3SC2)s1 [Cefazolin],95%
14,C[C@H]1[C@H](NC(=O)/C(=N\OC(C)(C)C(=O)O)c2csc(N)n2)C(=O)N1S(=O)(=O)O [Aztreonam],91%
15,C[C@H]1COc2c(N3CCN(C)CC3)c(F)cc3c(=O)c(C(=O)O)cn1c23 [Levofloxacin],81%
16,Ampicillin/Sulbactam,84%
17,CN(C)[C@@H]1C(O)=C(C(N)=O)C(=O)[C@@]2(O)C(O)=C3C(=O)c4c(O)cccc4[C@@](C)(O)[C@H]3C[C@@H]12 [Tetracycline],68%
18,Ticarcillin/K Clavulanate,44%
19,CO/N=C(\C(=O)N[C@@H]1C(=O)N2C(C(=O)O)=C(COC(N)=O)CS[C@H]12)c1ccco1 [Cefuroxime],93%
20,CO/N=C(\C(=O)N[C@@H]1C(=O)N2C(C(=O)[O-])=C(C[N+]3(C)CCCC3)CS[C@H]12)c1csc(N)n1 [Cefepime],90%
21,CC(C)(O/N=C(\C(=O)N[C@@H]1C(=O)N2C(C(=O)[O-])=C(C[n+]3ccccc3)CS[C@H]12)c1csc(N)n1)C(=O)O [Ceftazidime],91%
22,CN(C)c1cc(NC(=O)CNC(C)(C)C)c(O)c2c1C[C@H]1C[C@H]3[C@H](N(C)C)C(O)=C(C(N)=O)C(=O)[C@@]3(O)C(O)=C1C2=O [Tigecycline],0.4%
23,CC1(C)S[C@@H]2[C@H](NC(=O)[C@H](N)c3ccccc3)C(=O)N2[C@H]1C(=O)O [Ampicillin],97%
24,CCN1CCN(C(=O)N[C@@H](C(=O)N[C@@H]2C(=O)N3[C@@H]2SC(C)(C)[C@@H]3C(=O)O)c2ccccc2)C(=O)C1=O [Piperacillin],96%
